# In PubChem BioAssay AID1963827 (Molecular Pharmacology Branch, DTP, NCI, 2024):
# Tested on: 994946-033-R-J1-PDC complex spheroid viability
# Assay: Anticancer human tumor 994946-033-R-J1-PDC patient-derived melanoma cell line growth inhibition [POLQ]
# Settings: for IC50: curve of first compound; for viability, T/C: stronger effect = lower value
# How it was run: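 Patient-derived tumour cells were co-cultured with HUVEC and mesenchymal stem cells as multicellular spheroids at 37 °C. They were treated with POLQ inhibitors (novobiocin, ART-558, RP6685) alone or combined with other agents. Top concentrations were at or near clinical Cmax (otherwise 10 microM; SN-38 at 1 microM), decreasing in half-log steps.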
# [1] = second compound 0.0316 µM, first compound 0.0316 µM
# [2] = second compound 0.0316 µM, first compound 0.1 µM
# [3] = second compound 0.0316 µM, first compound 0.316 µM
# [4] = second compound 0.0316 µM, first compound 1 µM
# [5] = second compound 0.0316 µM, first compound 3.16 µM
# [6] = second compound 0.0316 µM, first compound 10 µM
# [7] = second compound 0.1 µM, first compound 0.0316 µM
# [8] = second compound 0.1 µM, first compound 0.1 µM
# [9] = second compound 0.1 µM, first compound 0.316 µM
# [10] = second compound 0.1 µM, first compound 1 µM
# [11] = second compound 0.1 µM, first compound 3.16 µM
# [12] = second compound 0.1 µM, first compound 10 µM
# [13] = second compound 0.316 µM, first compound 0.0316 µM
# [14] = second compound 0.316 µM, first compound 0.1 µM
# [15] = second compound 0.316 µM, first compound 0.316 µM
# [16] = second compound 0.316 µM, first compound 1 µM
# [17] = second compound 0.316 µM, first compound 3.16 µM
# [18] = second compound 0.316 µM, first compound 10 µM
# [19] = second compound 1 µM, first compound 0.0316 µM
# [20] = second compound 1 µM, first compound 0.1 µM
# [21] = second compound 1 µM, first compound 0.316 µM
# [22] = second compound 1 µM, first compound 1 µM
# [23] = second compound 1 µM, first compound 3.16 µM
# [24] = second compound 1 µM, first compound 10 µM
# [25] = second compound 3.16 µM, first compound 0.0316 µM
# [26] = second compound 3.16 µM, first compound 0.1 µM
# [27] = second compound 3.16 µM, first compound 0.316 µM
# [28] = second compound 3.16 µM, first compound 1 µM
# [29] = second compound 3.16 µM, first compound 3.16 µM
# [30] = second compound 3.16 µM, first compound 10 µM
# [31] = second compound 10 µM, first compound 0.0316 µM
# [32] = second compound 10 µM, first compound 0.1 µM
# [33] = second compound 10 µM, first compound 0.316 µM
# [34] = second compound 10 µM, first compound 1 µM
# [35] = second compound 10 µM, first compound 3.16 µM
# [36] = second compound 10 µM, first compound 10 µM
# 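Further: spheroids exposed to drugs for 7 days.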
# 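Wherever viability, T/C is given: 100% = DMSO vehicle treated spheroids.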
smiles,measurement,setting,value
C#Cc1c(F)ccc2cc(O)cc(-c3ncc4c(N5CC6CCC(C5)N6)nc(OCC56CCCN5CC(F)C6)nc4c3F)c12 (stereo unspecified) + COC1C(OC(N)=O)C(O)C(Oc2ccc3c(O)c(NC(=O)c4ccc(O)c(CC=C(C)C)c4)c(=O)oc3c2C)OC1(C)C,IC50,second compound 0.0316 µM,5.06 µM
same,IC50,second compound 0.1 µM,5.48 µM
same,IC50,second compound 0.316 µM,4.01 µM
same,IC50,second compound 1 µM,5.89 µM
same,IC50,second compound 3.16 µM,4.14 µM
same,IC50,second compound 10 µM,5.33 µM
same,"viability, T/C",[1],116%
same,"viability, T/C",[2],121%
same,"viability, T/C",[3],87.2%
same,"viability, T/C",[4],139%
same,"viability, T/C",[5],76.4%
same,"viability, T/C",[6],11.8%
same,"viability, T/C",[7],107%
same,"viability, T/C",[8],98.7%
same,"viability, T/C",[9],78.8%
same,"viability, T/C",[10],110%
same,"viability, T/C",[11],82.7%
same,"viability, T/C",[12],14.3%
same,"viability, T/C",[13],106%
same,"viability, T/C",[14],99.7%
same,"viability, T/C",[15],96.2%
same,"viability, T/C",[16],84.7%
same,"viability, T/C",[17],61%
same,"viability, T/C",[18],10.2%
same,"viability, T/C",[19],77.9%
same,"viability, T/C",[20],114%
same,"viability, T/C",[21],81.7%
same,"viability, T/C",[22],71.5%
same,"viability, T/C",[23],82.5%
same,"viability, T/C",[24],26.6%
same,"viability, T/C",[25],98.2%
same,"viability, T/C",[26],92.7%
same,"viability, T/C",[27],105%
same,"viability, T/C",[28],94.7%
same,"viability, T/C",[29],62.3%
same,"viability, T/C",[30],9.63%
same,"viability, T/C",[31],94.8%
same,"viability, T/C",[32],93.2%
same,"viability, T/C",[33],65.9%
same,"viability, T/C",[34],92%
same,"viability, T/C",[35],86.3%
same,"viability, T/C",[36],6.26%
CCc1cc2c(N3CCc4c(cc(Cn5ccnc5)cc4-c4cn(C)nc4C(F)(F)F)C3=O)cc(C)nc2c(OC)n1 + COC1C(OC(N)=O)C(O)C(Oc2ccc3c(O)c(NC(=O)c4ccc(O)c(CC=C(C)C)c4)c(=O)oc3c2C)OC1(C)C,IC50,second compound 0.0316 µM,> 10 µM
same,IC50,second compound 0.1 µM,> 10 µM
same,IC50,second compound 0.316 µM,> 10 µM
same,IC50,second compound 1 µM,> 10 µM
same,IC50,second compound 3.16 µM,> 10 µM
same,IC50,second compound 10 µM,> 10 µM
same,"viability, T/C",[1],105%
same,"viability, T/C",[2],86.1%
same,"viability, T/C",[3],89.6%
same,"viability, T/C",[4],83%
same,"viability, T/C",[5],73.4%
same,"viability, T/C",[6],64%
same,"viability, T/C",[7],83.5%
same,"viability, T/C",[8],71.5%
same,"viability, T/C",[9],75.1%
same,"viability, T/C",[10],86.9%
same,"viability, T/C",[11],83.2%
same,"viability, T/C",[12],75.1%
same,"viability, T/C",[13],111%
same,"viability, T/C",[14],90.2%
same,"viability, T/C",[15],86.1%
same,"viability, T/C",[16],51.9%
same,"viability, T/C",[17],54%
same,"viability, T/C",[18],70.5%
same,"viability, T/C",[19],100%
same,"viability, T/C",[20],71.3%
same,"viability, T/C",[21],86.9%
same,"viability, T/C",[22],82.2%
same,"viability, T/C",[23],88.9%
same,"viability, T/C",[24],91%
same,"viability, T/C",[25],66%
same,"viability, T/C",[26],100%
same,"viability, T/C",[27],80.8%
same,"viability, T/C",[28],78.2%
same,"viability, T/C",[29],73.1%
same,"viability, T/C",[30],63.8%
same,"viability, T/C",[31],68.1%
same,"viability, T/C",[32],93.4%
same,"viability, T/C",[33],64.6%
same,"viability, T/C",[34],82.2%
same,"viability, T/C",[35],51.1%
same,"viability, T/C",[36],69.9%
O=C(Nc1ccc(O)c(NS(=O)(=O)c2ccc(F)cc2)c1)c1ccc(-c2ccccc2)cc1 + COC1C(OC(N)=O)C(O)C(Oc2ccc3c(O)c(NC(=O)c4ccc(O)c(CC=C(C)C)c4)c(=O)oc3c2C)OC1(C)C,IC50,second compound 0.0316 µM,6.64 µM
same,IC50,second compound 0.1 µM,6.29 µM
same,IC50,second compound 0.316 µM,6.09 µM
same,IC50,second compound 1 µM,6.3 µM
same,IC50,second compound 3.16 µM,5.45 µM
same,IC50,second compound 10 µM,4.58 µM
same,"viability, T/C",[1],87.9%
same,"viability, T/C",[2],103%
same,"viability, T/C",[3],101%
same,"viability, T/C",[4],111%
same,"viability, T/C",[5],93%
same,"viability, T/C",[6],25.9%
same,"viability, T/C",[7],96%
same,"viability, T/C",[8],105%
same,"viability, T/C",[9],80.2%
same,"viability, T/C",[10],94.4%
same,"viability, T/C",[11],82.6%
same,"viability, T/C",[12],27.9%
same,"viability, T/C",[13],99%
same,"viability, T/C",[14],123%
same,"viability, T/C",[15],84.3%
same,"viability, T/C",[16],87.3%
same,"viability, T/C",[17],85.1%
same,"viability, T/C",[18],27.6%
same,"viability, T/C",[19],100%
same,"viability, T/C",[20],81.8%
same,"viability, T/C",[21],109%
same,"viability, T/C",[22],111%
same,"viability, T/C",[23],78%
same,"viability, T/C",[24],31.1%
same,"viability, T/C",[25],97.8%
same,"viability, T/C",[26],103%
same,"viability, T/C",[27],92.3%
same,"viability, T/C",[28],83.5%
same,"viability, T/C",[29],66.2%
same,"viability, T/C",[30],32.4%
same,"viability, T/C",[31],82.2%
same,"viability, T/C",[32],102%
same,"viability, T/C",[33],84.5%
same,"viability, T/C",[34],129%
same,"viability, T/C",[35],60.1%
same,"viability, T/C",[36],28.5%
